Results as given in US20140271822A1, “MODIFIED DOCETAXEL LIPOSOME FORMULATIONS” (Mallinckrodt LLC, priority 2013, published 2014).
Entries after “also recorded” stand apart in the source; their conditions may differ.

What was measured:
[1] = system: human A253 (Head & Neck) tumor xenografts; assay: Antitumor activity, A253 head & neck xenograft; assay type: in vivo, athymic nude mice; conditions: for TGI (%): day 31 post treatment
Text: The studies were of broadly similar design.

[2] = system: human A549 NSCLC tumor xenografts; assay: Antitumor activity, A549 NSCLC xenograft, single dose; assay type: in vivo, athymic nude mice
Description: (§1) The studies were of broadly similar design. Tumor cell lines were implanted subcutaneously into the flank of nude (immunodeficient) mice and allowed to grow to a fixed size. […] In each case, where possible, doses were selected as providing equivalent levels of toxicity/tolerance. […] Tumor volume was analyzed to determine tumor growth delay (TGD) and partial regression. Mice were removed from the study if they lost 20% of their initial bodyweight or became moribund or if their tumor volume exceeded 2500 mm^3 or the tumor ulcerated. If less than half of the initial cohort of mice remained, that group was no longer graphed or included in further tumor analysis. However, any remaining animals were followed until completion of the in-life observation period and included in a survival analysis.

[3] = system: human PC3 (prostate) tumor xenografts; assay: Antitumor activity, PC3 prostate xenograft; assay type: in vivo, athymic nude mice; conditions: docetaxel 18 and 27 mg/kg
Description: as §1

[4] = system: MDA-MB-435/PTK7 (human breast) tumor xenografts; assay: Antitumor activity, MDA-MB-435/PTK7 breast xenograft; assay type: in vivo, athymic nude mice
Description: as §1

[5] = system: HT1080/PTK7 human fibrosarcoma tumor xenografts; assay: Antitumor activity, HT1080/PTK7 fibrosarcoma xenograft; assay type: in vivo, athymic nude mice
Description: as §1

[6] = system: A431 human epidermoid tumor xenografts; assay: Antitumor activity, A431 epidermoid xenograft; assay type: in vivo, athymic nude mice
Description: as §1

[7] = mouse, in vivo
Description: (§2) The plasma pharmacokinetics and distribution were studied in female athymic nude mice each implanted subcutaneously with A549 cells (human non-small cell lung cancer). Once tumors reached a volume of 100-300 mm^3, animals were randomized into 4 groups.
(§3) Three animals were sacrificed at 1, 4, 24, 72 (3 days), 168 (7 days), 216 (9 days), 336 (14 days), 432 (18 days) and 504 hours (21 days) post injection. Blood samples were taken for pharmacokinetic analysis at each time point. Pharmacokinetic parameters of TD-1 and docetaxel were calculated using the Phoenix WinNonLin software by non-compartment analysis modeling.

in vivo [8] = conditions: male, athymic nude, mouse, plasma, iv, 19 mg/kg
Description: (§4) The plasma pharmacokinetics and distribution were studied in male athymic nude mice each implanted subcutaneously with PC3 cells (human prostate cancer). Once tumors reached a volume of 100-300 mm^3, animals were randomized into 5 groups.
(§5) Three animals were sacrificed at 5 minutes and 1, 4, 24, 48, 72, 120 and 168 hours post injection. Blood samples were taken for pharmacokinetic analysis at each time. Pharmacokinetic parameters of TD-1 and docetaxel were calculated using the Phoenix WinNonLin software by non-compartment analysis modeling.

in vivo [9] = conditions: female, athymic nude, mouse, iv
Description: as §2, §3

[10] = Tissue distribution in mice with PC3 xenografts; conditions: docetaxel in tissue
Description: as §4, §5
In addition to the plasma levels and pharmacokinetic calculations described above, tissue distribution was also evaluated. Tissues harvested from each animal described in Table 5 and frozen before analysis included: tumor, liver, spleen, and kidney.

[11] = Tissue distribution in mice with A549 xenografts; conditions: for Kidney AUC / Liver AUC / Spleen AUC / Tumor AUC: docetaxel in tissue
Description: as §2
Three animals were sacrificed at 1, 4, 24, 72 (3 days), 168 (7 days), 216 (9 days), 336 (14 days), 432 (18 days) and 504 hours (21 days) post injection. Blood samples were taken for pharmacokinetic analysis at each time point.

[12] = Plasma pharmacokinetics in nude mice bearing PC3 xenografts; conditions: single iv; for plasma docetaxel concentrations falling below the levels of detection after: free drugs
Description: as §4, §5

[13] = system: A549 human NSCLC tumor xenografts; assay: Antitumor activity, A549 NSCLC xenograft, two doses 21 days apart; conditions: for Median Survival / Partial Tumor Regression (%) / TGD / TGD (%): two doses 21 days apart
Description: The studies were of broadly similar design. Tumor cell lines were implanted subcutaneously into the flank of nude (immunodeficient) mice and allowed to grow to a fixed size. […] In each case, where possible, doses were selected as providing equivalent levels of toxicity/tolerance. The highest doses of TD-1 were usually limited by the volume that could be administered. Tumor volume was analyzed to determine tumor growth delay (TGD) and partial regression. Mice were removed from the study if they lost 20% of their initial bodyweight or became moribund or if their tumor volume exceeded 2500 mm^3 or the tumor ulcerated. If less than half of the initial cohort of mice remained, that group was no longer graphed or included in further tumor analysis. However, any remaining animals were followed until completion of the in-life observation period and included in a survival analysis.

[14] = 30 mg/kg (docetaxel equivalent) single iv
[15] = dose 19 mg/kg (docetaxel equivalent)
[16] = docetaxel in plasma, dose 19 mg/kg (docetaxel equivalent)
[17] = TD-1 in plasma, dose 11 mg/kg (docetaxel equivalent)
[18] = docetaxel in plasma, dose 11 mg/kg (docetaxel equivalent)

CC(=O)O[C@@]12CO[C@@H]1C[C@H](O)[C@@]1(C)C(=O)[C@H](O)C3=C(C)[C@@H](OC(=O)[C@H](O)[C@@H](NC(=O)OC(C)(C)C)c4ccccc4)C[C@@](O)([C@@H](OC(=O)c4ccccc4)[C@H]21)C3(C)C [Docetaxel, docetaxel]
Median Survival ([1]; 10 mg/kg single iv): 64 days
TGD ([1]; 10 mg/kg single iv): 0 days
TGD (%) ([1]; 10 mg/kg single iv): 0%
TGI (%) ([1]; 10 mg/kg single iv): 0%
Median Survival ([1]; 20 mg/kg single iv): 62 days
TGD ([1]; 20 mg/kg single iv): 0 days
TGD (%) ([1]; 20 mg/kg single iv): 0%
TGI (%) ([1]; 20 mg/kg single iv): 0%
Median Survival [1, 14]: 73 days
TGD [1, 14]: 5 days
TGD (%) [1, 14]: 9%
TGI (%) [1, 14]: 12%
effect on tumor volumes and survival ([1]; docetaxel 10, 20, 30 mg/kg): failed to reduce A253 tumor volumes significantly or extend survival
Median Survival ([2]; 10 mg/kg single iv): 96 days
Partial Tumor Regression (%) ([2]; 10 mg/kg single iv): 0%
TGI (%) ([2]; 10 mg/kg single iv): 0%
Partial Tumor Regression (%) ([2]; 20 mg/kg single iv): 0%
TGI (%) ([2]; 20 mg/kg single iv): 4%
Partial Tumor Regression (%) [2, 14]: 10%
TGI (%) [2, 14]: 38%
effect on tumor volumes and survival ([2]; docetaxel 10, 20, 30 mg/kg): failed to reduce A549 tumor volumes significantly or extend survival
tumor growth [3]: inhibited tumor growth
survival compared to saline ([3]; p<0.05): increased survival significantly more than saline
Median Survival ([4]; 9 mg/kg single iv): 15 days
Partial Tumor Regression (%) ([4]; 9 mg/kg single iv): 0%
TGD ([4]; 9 mg/kg single iv): 1
TGD (%) ([4]; 9 mg/kg single iv): 9%
Median Survival ([4]; 18 mg/kg single iv): 28 days
Partial Tumor Regression (%) ([4]; 18 mg/kg single iv): 13%
TGD ([4]; 18 mg/kg single iv): 10
TGD (%) ([4]; 18 mg/kg single iv): 91%
TGI (%) ([4]; 18 mg/kg single iv): 26%
Median Survival ([4]; 27 mg/kg single iv): 35 days
Partial Tumor Regression (%) ([4]; 27 mg/kg single iv): 38%
TGD ([4]; 27 mg/kg single iv): 18
TGD (%) ([4]; 27 mg/kg single iv): 164%
TGI (%) ([4]; 27 mg/kg single iv): 42%
tumor growth ([4]; docetaxel 18 and 27 mg/kg): inhibited tumor growth
Median Survival ([5]; 9 mg/kg single iv): 11.5 days
Partial Tumor Regression (%) ([5]; 9 mg/kg single iv): 0%
TGI (%) ([5]; 9 mg/kg single iv): 52%
Median Survival ([5]; 18 mg/kg single iv): 23 days
Partial Tumor Regression (%) ([5]; 18 mg/kg single iv): 10%
TGD ([5]; 18 mg/kg single iv): 7
TGD (%) ([5]; 18 mg/kg single iv): 70%
TGI (%) ([5]; 18 mg/kg single iv): 31%
Median Survival ([5]; 27 mg/kg single iv): 30 days
Partial Tumor Regression (%) ([5]; 27 mg/kg single iv): 70%
TGD ([5]; 27 mg/kg single iv): 16
TGD (%) ([5]; 27 mg/kg single iv): 160%
TGI (%) ([5]; 27 mg/kg single iv): 89%
survival ([5]; docetaxel): did not significantly increase survival
tumor growth compared to saline ([5]; docetaxel 27 mg/kg, day 14): inhibited tumor growth; also recorded: significantly smaller tumors than saline
Median Survival ([6]; 20 mg/kg single iv): 17 days
Partial Tumor Regression (%) ([6]; 20 mg/kg single iv): 63%
TGD ([6]; 20 mg/kg single iv): 13
TGD (%) ([6]; 20 mg/kg single iv): 1408%
TGI (%) ([6]; 20 mg/kg single iv): 123%
Median Survival ([6]; 30 mg/kg single iv): 9 days
Partial Tumor Regression (%) ([6]; 30 mg/kg single iv): 50%
TGI (%) ([6]; 30 mg/kg single iv): 120%
tumor growth compared to saline ([6]; docetaxel 20 and 30 mg/kg, day 7): inhibited tumor growth; also recorded: significantly smaller tumors than saline
plasma docetaxel detectable for [7]: only four hours
AUC (in vivo [8]): 13000 ng·h/mL
Cmax (in vivo [8]): 13000 ng/mL
Vd (in vivo [8]): 16.1 L/kg
clearance (in vivo [8]): 25 mL/min/kg
half-life (in vivo [8]): 7.4 h
AUC(0-inf) (in vivo [9]; 30 mg/kg): 8800 ng·h/mL
Cmax (in vivo [9]; 30 mg/kg): 2700 ng/mL
Vd (in vivo [9]; 30 mg/kg): 16.1 L/kg
AUC(0-inf) (in vivo [9]; 50 mg/kg): 27000 ng·h/mL
Cmax (in vivo [9]; 50 mg/kg): 8600 ng/mL
Vd (in vivo [9]; 50 mg/kg): 37.2 L/kg
Kidney AUC [10, 15]: 73 µg·h/g
Liver AUC [10, 15]: 50 µg·h/g
Spleen AUC [10, 15]: 94 µg·h/g
Tumor AUC [10, 15]: 896 µg·h/g
tumor retained measurable levels of docetaxel through ([11]; docetaxel 50 mg/kg): 216 h
tissue concentrations of docetaxel fell below the limits of quantitation after ([11]; docetaxel 50 mg/kg, most of the tissues except tumor): 24 h
Kidney AUC ([11]; dose 30 mg/kg): 28 µg·h/g
Liver AUC ([11]; dose 30 mg/kg): 10 µg·h/g
Spleen AUC ([11]; dose 30 mg/kg): 77 µg·h/g
Tumor AUC ([11]; dose 30 mg/kg): 276 µg·h/g
Kidney AUC ([11]; dose 50 mg/kg): 179 µg·h/g
Liver AUC ([11]; dose 50 mg/kg): 37 µg·h/g
Spleen AUC ([11]; dose 50 mg/kg): 162 µg·h/g
Tumor AUC ([11]; dose 50 mg/kg): 442 µg·h/g
docetaxel in liver, spleen and kidney fell below the levels of detection within ([11]; free docetaxel, after injection): ≤ 24 h
tumor docetaxel falling below the levels of quantitation (1.0 μg/g) after ([11]; intravenous injection of docetaxel): nine days
AUC/Dose [12, 16]: 0.7
Cmax/Dose [12, 16]: 0.7
plasma docetaxel concentrations falling below the levels of detection after [12]: 48 h
Median Survival ([13]; 18 mg/kg): 56 days
Partial Tumor Regression (%) ([13]; 18 mg/kg): 0%
TGD ([13]; 18 mg/kg): 19
TGD (%) ([13]; 18 mg/kg): 66%
Median Survival ([13]; 27 mg/kg): 100 days
Partial Tumor Regression (%) ([13]; 27 mg/kg): 10%
TGD ([13]; 27 mg/kg): 41
TGD (%) ([13]; 27 mg/kg): 141%
survival compared to saline ([13]; all dose levels, p<0.05): increased survival significantly compared to saline
tumor growth compared to saline ([13]; docetaxel 18 and 27 mg/kg, days 0 and 21, day 37): inhibited tumor growth; also recorded: significantly smaller tumors than saline

CC(=O)O[C@@]12CO[C@@H]1C[C@H](O)[C@@]1(C)C(=O)[C@H](O)C3=C(C)[C@@H](OC(=O)[C@H](OC(=O)CCCN4CCN(C)CC4)[C@@H](NC(=O)OC(C)(C)C)c4ccccc4)C[C@@](O)([C@@H](OC(=O)c4ccccc4)[C@H]21)C3(C)C [TD-1, 2′O-4-(4-methylpiperazin-1-yl)-butanoyl-docetaxel]
Tumor AUC ([10]; dose 11 mg/kg (docetaxel equivalent)): 314 µg·h/g
AUC [12, 17]: 5700 ng·h/mL
AUC/Dose [12, 17]: 0.4
CL [12, 17]: 39.77 mL/min/kg
Cmax [12, 17]: 5000 ng/mL
Cmax/Dose [12, 17]: 0.4
Vz [12, 17]: 26.01 L/kg
t1/2 [12, 17]: 7.6 h
AUC [12, 18]: 4100 ng·h/mL
AUC/Dose [12, 18]: 0.4
CL [12, 18]: 43.18 mL/min/kg
Cmax [12, 18]: 1400 ng/mL
Cmax/Dose [12, 18]: 0.1
Vz [12, 18]: 40.905 L/kg
t1/2 [12, 18]: 11 h
plasma docetaxel concentrations falling below the levels of detection after [12]: 48 h
